In patent US8012956B2, “Tropane compounds” (Exelixis, Inc., priority 2007, dated 2011):

Target: HSP90 (Homo sapiens, UniProt P07900)
Experiment: HSP90 inhibition (HSP90 IC50)
Format: biochemical

| SMILES | IC50 [nM] |
| --- | --- |
| Cc1cc(C(N)=O)cc(C)c1C(=O)N[C@H]1C[C@H]2CC[C@@H](C1)N2c1ccc(C(=O)NCc2ccccc2)cn1 [2,6-dimethyl-N1-[8-(5-{[(phenylmethyl)amino]carbonyl}pyridin-2-yl)-8-azabicyclo[3.2.1]oct-3-endo-yl]benzene-1,4-dicarboxamide] | 500 to 999 |
| CC(=O)Nc1cc(C(=O)N[C@H]2C[C@H]3CC[C@@H](C2)N3c2ccc(C(N)=O)cn2)ccc1C(N)=O [2-(acetylamino)-N4-{8-[5-(aminocarbonyl)pyridin-2-yl]-8-azabicyclo[3.2.1]oct-3-endo-yl}benzene-1,4-dicarboxamide] | 1000 to 2000 |
| CCCCNc1cc(C(=O)N[C@H]2C[C@H]3CC[C@@H](C2)N3c2ccc(C(=O)C3CC3)cn2)ccc1C(N)=O [2-(butylamino)-N4-{8-[5-(cyclopropylcarbonyl)pyridin-2-yl]-8-azabicyclo[3.2.1]oct-3-endo-yl}benzene-1,4-dicarboxamide] | < 500 |
| C[C@H](NC(=O)c1ccc(N2C3CCC2CC(NC(=O)c2ccc(C(N)=O)c(NC4CCC4)c2)C3)nc1)c1ccc(N2CCN(C)CC2)cc1 (stereo partly drawn) [2-(cyclobutylamino)-N4-(8-{5-[({(1S) 1-[4-(4-methylpiperazin-1-yl)phenyl]ethyl}amino)carbonyl]pyridin-2-yl}-8-azabicyclo[3.2.1]oct-3-endo-yl)benzene-1,4-dicarboxamide] | < 500 |
| C[C@H](NC(=O)c1ccc(N2C3CCC2CC(NC(=O)c2ccc(C(N)=O)c(OC4CCC4)c2)C3)nc1)c1ccc(N2CCN(C)CC2)cc1 (stereo partly drawn) [2-(cyclobutyloxy)-N4-(8-{5-[({(1S)-1-[4-(4-methylpiperazin-1-yl)phenyl]ethyl}amino)carbonyl]pyridin-2-yl}-8-azabicyclo[3.2.1]oct-3-endo-yl)benzene-1,4-dicarboxamide] | 500 to 999 |
| COc1cc(C(=O)NC2CC3CCC(C2)N3c2ccc(C(=O)N[C@@H](C)c3ccc(N4CCN(C)CC4)cc3)cn2)ccc1C(N)=O (stereo partly drawn) [2-(methyloxy)-N4-(8-{5-[({(1S)-1-[4-(4-methylpiperazin-1-yl)phenyl]ethyl}amino)carbonyl]pyridin-2-yl}-8-azabicyclo[3.2.1]oct-3-endo-yl)benzene-1,4-dicarboxamide] | < 500 |
| CCC(CC)Nc1cc(C(=O)NC2CC3CCC(C2)N3c2ccc(C(=O)N[C@@H]3CCNC3)cn2)ccc1C(N)=O (stereo partly drawn) [2-[(1-ethylpropyl)amino]-N4-[8-(5-{[(3R)-pyrrolidin-3-ylamino]carbonyl}pyridin-2-yl)-8-azabicyclo[3.2.1]oct-3-endo-yl]benzene-1,4-dicarboxamide] | < 500 |
| CCC(CC)Nc1cc(C(=O)NC2CC3CCC(C2)N3c2ccc(C(=O)N[C@H]3CCCNC3)cn2)ccc1C(N)=O (stereo partly drawn) [2-[(1-ethylpropyl)amino]-N4-[8-(5-{[(3S)-piperidin-3-ylamino]carbonyl}pyridin-2-yl)-8-azabicyclo[3.2.1]oct-3-endo-yl]benzene-1,4-dicarboxamide] | < 500 |
| CCC(CC)Nc1cc(C(=O)N[C@H]2C[C@H]3CC[C@@H](C2)N3c2ccc(C(=O)CCN3CCCCC3)cn2)ccc1C(N)=O [2-[(1-ethylpropyl)amino]-N4-{8-[5-(3-piperidin-1-ylpropanoyl)pyridin-2-yl]-8-azabicyclo[3.2.1]oct-3-endo-yl}benzene-1,4-dicarboxamide] | < 500 |
| CCC(CC)Nc1cc(C(=O)NC2CC3CCC(C2)N3c2ccc(C(=O)N[C@@H]3CCN(C(C)C)C3)cn2)ccc1C(N)=O (stereo partly drawn) [2-[(1-ethylpropyl)amino]-N4-{8-[5-({[(3R)-1-(1-methylethyl)pyrrolidin-3-yl]amino}carbonyl)pyridin-2-yl]-8-azabicyclo[3.2.1]oct-3-endo-yl}benzene-1,4-dicarboxamide] | < 500 |
| CCC(CC)Nc1cc(C(=O)NC2CC3CCC(C2)N3c2ccc(C(=O)N[C@@H]3CCN(CC)C3)cn2)ccc1C(N)=O (stereo partly drawn) [2-[(1-ethylpropyl)amino]-N4-{8-[5-({[(3R)-1-ethylpyrrolidin-3-yl]amino}carbonyl)pyridin-2-yl]-8-azabicyclo[3.2.1]oct-3-endo-yl}benzene-1,4-dicarboxamide] | < 500 |
| CCC(CC)Nc1cc(C(=O)NC2CC3CCC(C2)N3c2ccc(C(=O)N[C@H]3CCN(C(C)C)C3)cn2)ccc1C(N)=O (stereo partly drawn) [2-[(1-ethylpropyl)amino]-N4-{8-[5-({[(3S)-1-(1-methylethyl)pyrrolidin-3-yl]amino}carbonyl)pyridin-2-yl]-8-azabicyclo[3.2.1]oct-3-endo-yl}benzene-1,4-dicarboxamide] | < 500 |
| C[C@H](NC(=O)c1ccc(N2C3CCC2CC(NC(=O)c2ccc(C(N)=O)c(N[C@H]4CC[C@H](O)CC4)c2)C3)nc1)c1ccc(N2CCN(C)CC2)cc1 (stereo partly drawn) [2-[(4-hydroxycyclohexyl)amino]-N4-(8-{5-[({(1S)-1-[4-(4-methylpiperazin-1-yl)phenyl]ethyl}amino)carbonyl]pyridin-2-yl}-8-azabicyclo[3.2.1]oct-3-endo-yl)benzene-1,4-dicarboxamide] | < 500 |
| CC(C)N1CC[C@@H](NC(=O)c2ccc(N3C4CCC3CC(NC(=O)c3ccc(C(N)=O)c(N[C@H]5CC[C@H](O)CC5)c3)C4)nc2)C1 (stereo partly drawn) [2-[(4-trans-hydroxycyclohexyl)amino]-N4-{8-[5-({[1-(1-methylethyl)pyrrolidin-3-yl]amino}carbonyl)pyridin-2-yl]-8-azabicyclo[3.2.1]oct-3-endo-yl}benzene-1,4-dicarboxamide] | < 500 |
| NC(=O)c1ccc(C(=O)N[C@H]2C[C@H]3CC[C@@H](C2)N3c2ccc(C(=O)CCNc3ccc(F)cc3)cn2)cc1NCC1CC1 [2-[(cyclopropylmethyl)amino]-N4-(8-{5-(N-(4-fluorophenyl)-beta-alanyl]pyridin-2-yl}-8-azabicyclo[3.2.1]oct-3-endo-yl)benzene-1,4-dicarboxamide] | 2000 to 10000 |
| CN1CCC(CCC(=O)c2ccc(N3[C@@H]4CC[C@H]3C[C@@H](NC(=O)c3ccc(C(N)=O)c(NCC5CC5)c3)C4)nc2)CC1 [2-[(cyclopropylmethyl)amino]-N4-(8-{5-[3-(1-methylpiperidin-4-yl)propanoyl]pyridin-2-yl}-8-azabicyclo[3.2.1]oct-3-endo-yl)benzene-1,4-dicarboxamide] | < 500 |
| CN1CCN(CCC(=O)c2ccc(N3[C@@H]4CC[C@H]3C[C@@H](NC(=O)c3ccc(C(N)=O)c(NCC5CC5)c3)C4)nc2)CC1 [2-[(cyclopropylmethyl)amino]-N4-(8-{5-[3-(4-methylpiperazin-1-yl)propanoyl]pyridin-2-yl}-8-azabicyclo[3.2.1]oct-3-endo-yl)benzene-1,4-dicarboxamide] | < 500 |
| NC(=O)c1ccc(C(=O)N[C@H]2C[C@H]3CC[C@@H](C2)N3c2ccc(C(=O)CCN3CCN(c4ccccc4)CC3)cn2)cc1NCC1CC1 [2-[(cyclopropylmethyl)amino]-N4-(8-{5-[3-(4-phenylpiperazin-1-yl)propanoyl]pyridin-2-yl}-8-azabicyclo[3.2.1]oct-3-endo-yl)benzene-1,4-dicarboxamide] | 500 to 999 |
| CCOCCC(=O)c1ccc(N2[C@@H]3CC[C@H]2C[C@@H](NC(=O)c2ccc(C(N)=O)c(NCC4CC4)c2)C3)nc1 [2-[(cyclopropylmethyl)amino]-N4-(8-{5-[3-(ethyloxy)propanoyl]pyridin-2-yl}-8-azabicyclo[3.2.1]oct-3-endo-yl)benzene-1,4-dicarboxamide] | < 500 |
| COCCC(=O)c1ccc(N2[C@@H]3CC[C@H]2C[C@@H](NC(=O)c2ccc(C(N)=O)c(NCC4CC4)c2)C3)nc1 [2-[(cyclopropylmethyl)amino]-N4-(8-{5-[3-(methyloxy)propanoyl]pyridin-2-yl}-8-azabicyclo[3.2.1]oct-3-endo-yl)benzene-1,4-dicarboxamide] | < 500 |
| C[C@H](NC(=O)c1ccc(N2C3CCC2CC(NC(=O)c2ccc(C(N)=O)c(NCC4CC4)c2)C3)nc1)c1ccc(N2CCN(C)CC2)cc1 (stereo partly drawn) [2-[(cyclopropylmethyl)amino]-N4-(8-{5-[({(1S)-1-[4-(4-methylpiperazin-1-yl)phenyl]ethyl}amino)carbonyl]pyridin-2-yl}-8-azabicyclo[3.2.1]oct-3-endo-yl)benzene-1,4-dicarboxamide] | < 500 |
| CCC(=O)c1ccc(N2[C@@H]3CC[C@H]2C[C@@H](NC(=O)c2ccc(C(N)=O)c(NCC4CC4)c2)C3)nc1 [2-[(cyclopropylmethyl)amino]-N4-[8-(5-propanoylpyridin-2-yl)-8-azabicyclo[3.2.1]oct-3-endo-yl]benzene-1,4-dicarboxamide] | < 500 |
| CON(C)C(=O)c1ccc(N2[C@@H]3CC[C@H]2C[C@@H](NC(=O)c2ccc(C(N)=O)c(NCC4CC4)c2)C3)nc1 [2-[(cyclopropylmethyl)amino]-N4-[8-(5-{[methyl(methyloxy)amino]carbonyl}pyridin-2-yl)-8-azabicyclo[3.2.1]oct-3-endo-yl]benzene-1,4-dicarboxamide] | 1000 to 2000 |
| NC(=O)c1ccc(C(=O)N[C@H]2C[C@H]3CC[C@@H](C2)N3c2ccc(C(=O)CCN3CCCCC3)cn2)cc1NCC1CC1 [2-[(cyclopropylmethyl)amino]-N4-{8-(5-(3-piperidin-1-ylpropanoyl)pyridin-2-yl]-8-azabicyclo[3.2.1]oct-3-endo-yl}benzene-1,4-dicarboxamide] | < 500 |
| NC(=O)c1ccc(C(=O)NC2CC3CCC(C2)N3c2ccc(C(=O)CC(O)c3ccccc3)cn2)cc1NCC1CC1 (stereo not drawn) [2-[(cyclopropylmethyl)amino]-N4-{8-[5-(3-hydroxy-3-phenylpropanoyl)pyridin-2-yl]-8-azabicyclo[3.2.1]oct-3-endo-yl}benzene-1,4-dicarboxamide] | 500 to 999 |
| CC(C)C(O)CC(=O)c1ccc(N2[C@@H]3CC[C@H]2C[C@@H](NC(=O)c2ccc(C(N)=O)c(NCC4CC4)c2)C3)nc1 (stereo partly drawn) [2-[(cyclopropylmethyl)amino]-N4-{8-[5-(3-hydroxy-4-methylpentanoyl)pyridin-2-yl]-8-azabicyclo[3.2.1]oct-3-endo-yl}benzene-1,4-dicarboxamide] | < 500 |
| CC(C)CC(=O)c1ccc(N2[C@@H]3CC[C@H]2C[C@@H](NC(=O)c2ccc(C(N)=O)c(NCC4CC4)c2)C3)nc1 [2-[(cyclopropylmethyl)amino]-N4-{8-[5-(3-methylbutanoyl)pyridin-2-yl]-8-azabicyclo[3.2.1]oct-3-endo-yl}benzene-1,4-dicarboxamide] | 1000 to 2000 |
